Source: US12552829B2, “Compositions and methods for treating CNS disorders” (SAGE THERAPEUTICS, INC., priority 2019, dated 2026)

Molecular target: [35S]-TBPS binding, rat brain cortical membranes (GABAA receptor)
Assay: Steroid inhibition of [35S]-TBPS binding
Conditions: 3 nM [35S]-TBPS, in the presence of 5 mM GABA, 90 min at room temp
Experimental: [^35S]-t-Butylbicyclophosphorothionate (TBPS) binding assays using rat brain cortical membranes in the presence of 5 mM GABA has been described (Gee et al, J. Pharmacol. Exp. Ther. 1987, 241, 346-353; Hawkinson et al, Mol. Pharmacol. 1994, 46, 977-985; Lewin, A. H et al., Mol. Pharmacol. 1989, 35, 189-194).
Briefly, cortices are rapidly removed following decapitation of carbon dioxide-anesthetized Sprague-Dawley rats (200-250 g). The cortices are homogenized in 10 volumes of ice-cold 0.32 M sucrose using a glass/teflon homogenizer and centrifuged at 1500×g for 10 min at 4° C. The resultant supernatants are centrifuged at 10,000×g for 20 min at 4° C. to obtain the P2 pellets. The P2 pellets are resuspended in 200 mM NaCl/50 mM Na-K phosphate pH 7.4 buffer and centrifuged at 10,000×g for 10 min at 4° C. This washing procedure is repeated twice and the pellets are resuspended in 10 volumes of buffer. Aliquots ([…]) of the membrane suspensions are incubated with 3 nM [^35S]-TBPS and […] aliquots of test drug dissolved in dimethyl sulfoxide (DMSO) (final 0.5%) in the presence of 5 mM GABA. The incubation is brought to a final volume of 1.0 mL with buffer. Nonspecific binding is determined in the presence of […] and ranged from 15 to 25%. Following a 90 min incubation at room temp, the assays are terminated by filtration through glass fiber filters (Schleicher and Schuell No. 32) using a cell harvester (Brandel) and rinsed three times with ice-cold buffer. Filter bound radioactivity is measured by liquid scintillation spectrometry. Non-linear curve fitting of the overall data for each drug averaged for each concentration is done using Prism (GraphPad). […] The concentration of test compound producing 50% inhibition (IC50) of specific binding and the maximal extent of inhibition (Imax) are determined for the individual experiments with the same model used for the overall data and then the means±SEM.s of the individual experiments are calculated.
Various compounds are or can be screened to determine their potential as modulators of [^35S]-TBPS binding in vitro. These assays are or can be performed in accordance with the above.

COC[C@@]1(O)CC[C@H]2[C@H](CC[C@@H]3[C@@H]2CC[C@@]2(C)[C@H]3[C@H](C)CC[C@@H]2[C@@](C)(O)Cn2cc(C#N)cn2)C1 (single isomer, unassigned) [Example 32]
IC50: < 100 nM

CCC[C@@]1(O)CC[C@H]2[C@H](CC[C@@H]3[C@@H]2CC[C@@]2(C)[C@H]3[C@H](C)CC[C@@H]2[C@@](C)(O)Cn2cc(C#N)cn2)C1 (single isomer, unassigned) [Example 34]
IC50: < 100 nM

CCC[C@@]1(O)CC[C@H]2[C@@H](CC[C@@H]3[C@@H]2CC[C@@]2(C)[C@H]3CCC[C@@H]2[C@](C)(O)Cn2cc(C#N)cn2)C1 [Example 1, 1-((S)-2-hydroxy-2-((1S,4aS,4bR,6aS,8R,10aS,10bR,12aS)-8-hydroxy-12a-methyl-8-propyloctadecahydrochrysen-1-yl)propyl)-1H-pyrazole-4-carbonitrile]
IC50: 100 to 1000 nM

CCC[C@@]1(O)CC[C@H]2[C@@H](CC[C@@H]3[C@@H]2CC[C@@]2(C)[C@H]3CCC[C@@H]2[C@@](C)(O)Cn2cc(C#N)cn2)C1 [Example 2, 1-((R)-2-hydroxy-2-((1S,4aS,4bR,6aS,8R,10aS,10bR,12aS)-8-hydroxy-12a-methyl-8-propyloctadecahydrochrysen-1-yl)propyl)-1H-pyrazole-4-carbonitrile]
IC50: 100 to 1000 nM

CC[C@@]1(O)CC[C@H]2[C@H](CC[C@@H]3[C@@H]2CC[C@@]2(C)[C@H]3CCC[C@@H]2[C@](C)(O)Cn2cc(C#N)cn2)C1 [Example 7, 1-((S)-2-((1S,4aS,4bR,6aR,8R,10aS,10bR,12aS)-8-ethyl-8-hydroxy-12a-methyloctadecahydrochrysen-1-yl)-2-hydroxypropyl)-1H-pyrazole-4-carbonitrile]
IC50: 100 to 1000 nM

CCC[C@@]1(O)CC[C@H]2[C@H](CC[C@@H]3[C@@H]2CC[C@@]2(C)[C@H]3CCC[C@@H]2[C@](C)(O)Cn2cc(C#N)cn2)C1 [Example 9, 1-((S)-2-hydroxy-2-((1S,4aS,4bR,6aR,8R,10aS,10bR,12aS)-8-hydroxy-12a-methyl-8-propyloctadecahydrochrysen-1-yl)propyl)-1H-pyrazole-4-carbonitrile]
IC50: < 100 nM

CC[C@@]1(O)CC[C@H]2[C@@H](CC[C@@H]3[C@@H]2CC[C@@]2(C)[C@H]3CCC[C@@H]2[C@@](C)(O)Cn2cc(C#N)cn2)C1 [Example 11, 1-((R)-2-((1S,4aS,4bR,6aS,8R,10aS,10bR,12aS)-8-ethyl-8-hydroxy-12a-methyloctadecahydrochrysen-1-yl)-2-hydroxypropyl)-1H-pyrazole-4-carbonitrile]
IC50: 100 to 1000 nM

C[C@@]1(O)CC[C@@]2(C)[C@H](CC[C@@H]3[C@@H]2CC[C@@]2(C)[C@H]3CCC[C@@H]2[C@@](C)(O)Cn2cc(C#N)cn2)C1 [Example 15, 1-((R)-2-hydroxy-2-((1S,4aS,4bR,6aR,8R,10aS,10bS,12aS)-8-hydroxy-8,10a,12a-trimethyloctadecahydrochrysen-1-yl)propyl)-1H-pyrazole-4-carbonitrile]
IC50: 100 to 1000 nM

CCC[C@@]1(O)CC[C@@]2(C)[C@@H](CC[C@@H]3[C@@H]2CC[C@@]2(C)[C@H]3CCC[C@@H]2[C@@](C)(O)Cn2cc(C#N)cn2)C1 [Example 17, 1-((R)-2-hydroxy-2-((1S,4aS,4bR,6aS,8R,10aS,10bS,12aS)-8-hydroxy-10a,12a-dimethyl-8-propyloctadecahydrochrysen-1-yl)propyl)-1H-pyrazole-4-carbonitrile]
IC50: ≥ 1000 nM

C[C@]1(O)CCC2=CC[C@H]3[C@@H]4CC[C@H]([C@](C)(O)Cn5cc(C#N)cn5)[C@@]4(C)CC[C@@H]3[C@@]2(C)CC1 [Example 18, 1-((S)-2-hydroxy-2-((1S,3aS,3bS,8S,10aR,10bS,12aS)-8-hydroxy-8,10a,12a-trimethyl-1,2,3,3a,3b,4,6,7,8,9,10,10a,10b,11,12,12a-hexadecahydrocyclohepta[a]cyclopenta[f]naphthalen-1-yl)propyl)-1H-pyrazole-4-carbonitrile]
IC50: 100 to 1000 nM

C[C@]1(O)CCC2=CC[C@H]3[C@@H]4CC[C@H]([C@@](C)(O)Cn5cc(C#N)cn5)[C@@]4(C)CC[C@@H]3[C@@]2(C)CC1 [Example 19, 1-((R)-2-hydroxy-2-((1S,3aS,3bS,8S,10aR,10bS,12aS)-8-hydroxy-8,10a,12a-trimethyl-1,2,3,3a,3b,4,6,7,8,9,10,10a,10b,11,12,12a-hexadecahydrocyclohepta[a]cyclopenta[f]naphthalen-1-yl)propyl)-1H-pyrazole-4-carbonitrile]
IC50: < 100 nM

C[C@@]1(O)CCC[C@H]2[C@H](CC[C@@H]3[C@@H]2CC[C@@]2(C)[C@H]3CC[C@@H]2[C@](C)(O)Cn2cc(C#N)cn2)C1 [Example 20, 1-((S)-2-hydroxy-2-((1S,3aS,3bR,5aR,7R,10aS,10bR,12aS)-7-hydroxy-7,12a-dimethyloctadecahydrocyclohepta[a]cyclopenta[f]naphthalen-1-yl)propyl)-1H-pyrazole-4-carbonitrile]
IC50: < 100 nM

C[C@@]1(O)CCC[C@H]2[C@H](CC[C@@H]3[C@@H]2CC[C@@]2(C)[C@H]3CC[C@@H]2[C@@](C)(O)Cn2cc(C#N)cn2)C1 [Example 21, 1-((R)-2-hydroxy-2-((1S,3aS,3bR,5aR,7R,10aS,10bR,12aS)-7-hydroxy-7,12a-dimethyloctadecahydrocyclohepta[a]cyclopenta[f]naphthalen-1-yl)propyl)-1H-pyrazole-4-carbonitrile]
IC50: 100 to 1000 nM

C[C@]1(O)CC[C@@H]2CC[C@@H]3[C@H](CC[C@@]4(C)[C@H]3CC[C@@H]4[C@@](C)(O)Cn3cc(C#N)cn3)[C@@]2(C)CC1 [Example 23, 1-((R)-2-hydroxy-2-((1S,3aS,3bR,5aS,8S,10aS,10bS,12aS)-8-hydroxy-8,10a,12a-trimethyloctadecahydrocyclohepta[a]cyclopenta[f]naphthalen-1-yl)propyl)-1H-pyrazole-4-carbonitrile]
IC50: 100 to 1000 nM

C[C@@H]1CC[C@H]([C@@](C)(O)Cn2cc(C#N)cn2)[C@@]2(C)CC[C@H]3[C@@H](CC[C@@H]4C[C@](C)(O)CC[C@@H]43)[C@H]12 [Example 24, 1-((R)-2-hydroxy-2-((1S,4R,4aS,4bR,6aR,8R,10aS,10bR,12aS)-8-hydroxy-4,8,12a-trimethyloctadecahydrochrysen-1-yl)propyl)-1H-pyrazole-4-carbonitrile]
IC50: < 100 nM

C[C@@H]1CC[C@H]([C@](C)(O)Cn2cc(C#N)cn2)[C@@]2(C)CC[C@H]3[C@@H](CC[C@@H]4C[C@](C)(O)CC[C@@H]43)[C@H]12 [Example 25, 1-((S)-2-hydroxy-2-((1S,4R,4aS,4bR,6aR,8R,10aS,10bR,12aS)-8-hydroxy-4,8,12a-trimethyloctadecahydrochrysen-1-yl)propyl)-1H-pyrazole-4-carbonitrile]
IC50: < 100 nM

C[C@H]1[C@H]2[C@@H]3CC[C@@H]4C[C@](C)(O)CC[C@@H]4[C@H]3CC[C@]2(C)[C@@H]([C@](C)(O)Cn2cc(C#N)cn2)C[C@@H]1C [Example 26, 1-((S)-2-hydroxy-2-((1S,3S,4R,4aS,4bR,6aR,8R,10aS,10bR,12aS)-8-hydroxy-3,4,8,12a-tetramethyloctadecahydrochrysen-1-yl)propyl)-1H-pyrazole-4-carbonitrile]
IC50: < 100 nM

C[C@H]1[C@H]2[C@@H]3CC[C@@H]4C[C@](C)(O)CC[C@@H]4[C@H]3CC[C@]2(C)[C@@H]([C@@](C)(O)Cn2cc(C#N)cn2)C[C@@H]1C [Example 27, 1-((R)-2-hydroxy-2-((1S,3S,4R,4aS,4bR,6aR,8R,10aS,10bR,12aS)-8-hydroxy-3,4,8,12a-tetramethyloctadecahydrochrysen-1-yl)propyl)-1H-pyrazole-4-carbonitrile]
IC50: < 100 nM
